{"source": "patent US12171763B2", "about": "“Methods and compositions comprising a KRASG12C inhibitor and a PD-L1 binding antagonist for treating lung cancer” (Genentech, Inc., priority 2020, dated 2024)", "key": {"[1]": {"system": "KRAS^G12C-positive cancer cell lines", "assay": "Mechanism of action studies in KRAS G12C-positive cancer cell lines", "assay_type": "cell-based"}, "[2]": {"system": "KRAS^G12C-positive lung tumors", "assay": "Nonclinical xenograft models of KRAS G12C-positive lung tumors", "assay_type": "in vivo"}, "[3]": {"assay": "Risks associated with administration of Compound 1", "conditions": "in vivo"}, "[4]": {"system": "KRAS^G12C-positive over KRAS^G12C-negative cancer cell lines", "assay": "Growth inhibition of KRAS G12C-positive versus KRAS G12C-negative cancer cell lines", "assay_type": "cell-based"}, "[5]": {"system": "CT26.KRAS12C-Clone #12:B2G9 Syngeneic Colorectal (CRC) Tumors", "assay": "Anti-tumor efficacy in CT26.KRAS12C-Clone #12:B2G9 syngeneic colorectal (CRC) tumor model", "assay_type": "in vivo, Balb/c mice", "protocol": "The combination of the adipate salt of Compound 1 with anti-PD-L1 monoclonal antibody (mAb) was assessed in the CRISPR-engineered CT26.KRAS12C-Clone #12:B2G9 mouse colorectal (CRC) syngeneic tumor model.\nTest Agents. The adipate salt of Compound 1 was in a solution at a concentration of 7.5 mg/mL in 0.5% (w/v) methylcellulose. Anti-PD-L1 mAbs (Mu IgG1 anti-PD-L1 (6E11); hereafter referred to as anti-PD-L1) was in a solution in Histidine Buffer #8 ([…] Histidine Acetate, […] Sucrose, 0.02% Tween 20™, pH 5.5). The oral-dosed vehicle control was 0.5% (w/v) methylcellulose. Test agents were stored in a refrigerator set to maintain a temperature range of 4° C.-7° C. All treatments and vehicle control dosing solutions were prepared once a week for three weeks.\nFemale Balb/c mice that were 9-10 weeks old were obtained from Charles River Laboratory (Hollister, CA) weighing an average of 22 g. Only animals that appeared to be healthy and that were free of obvious abnormalities were used for the study. Mus musculus colon carcinoma CT26 cells were obtained from the American Type Culture Collection (Rockville, MD). CT26.KRAS12C-Clone #12:B2G9 is derived from CRISPR knock-in of G12C in CT26 cells. Cells were cultured in vitro, harvested in log-phase growth, and resuspended in Hank's Balanced Salt Solution (HBSS) containing Matrigel (BD Biosciences; San Jose, CA) at a 1:1 ratio. The cells were then implanted subcutaneously in the right lateral thorax of 70 Balb/c mice. Each mouse was injected with 0.1×10^6 cells in a volume of 100 μL. Tumors were monitored until they reached a mean tumor volume of 159-228 mm^3. Mice were distributed into six groups based on tumor volumes with n=8 mice per group. The mean tumor volume across all six groups was 198 mm^3 at the initiation of dosing.\n[…] The MC vehicle and adipate salt of Compound 1 were administered on QD orally (PO) by gavage for 21 days in a volume of 100 μL. The isotope control mAbs and anti-PD-L1 mAbs were administered intravenously (IV) at 10 mg/kg for the first dose, and then dosed intraperitoneally (IP) at 5 mg/kg for subsequent doses on a twice weekly (BIW) schedule.\nTumor sizes and mouse body weights were recorded twice weekly over the course of the study. […]\nDose Preparation and Tumor and Body Weight Measurement. All concentrations were calculated based on a mean body weight of 25 g for the […] mouse strain used in this study. Tumor volumes were measured in two dimensions (length and width) using Ultra Cal-IV calipers (model 54-10-111; Fred V. Fowler Co.; Newton, MA) and analyzed using Excel, version 14.2.5 (Microsoft Corporation; Redmond WA). The tumor volume was calculated with the following formula: Tumor size(mm^3)=(longer measurement×shorter measurement^2)×0.5 […]"}, "NSCLC": {"system": "NSCLC", "conditions": "patients in clinical studies, cited from earlier work"}}, "note": "Where a name gives a salt, the structure may show the parent alone."}
{"compound": "C=CC(=O)N1CCN(c2nc(OC[C@@H]3CCCN3C)nc3c(F)c(-c4nc(N)cc(C)c4C(F)(F)F)c(Cl)cc23)[C@@H](C)C1", "note": "(atropisomer, axis not shown) [Compound 1, 1-((S)-4-((R)-7-(6-amino-4-methyl-3-(trifluoromethyl)pyridin-2-yl)-6-chloro-8-fluoro-2-(((S)-1-methylpyrrolidin-2-yl)methoxy)quinazolin-4-yl)-3-methylpiperazin-1-yl)prop-2-en-1-one]", "values": [{"measurement": "apoptosis induction", "setting": "[1]", "result": "apoptosis induction is observed"}, {"measurement": "downstream MAPK pathway components (pERK, pS6) and KRAS target genes (DUSP6, SPRY4)", "setting": "[1]", "result": "inhibited"}, {"measurement": "single-agent activity on tumor growth", "setting": "[2]", "result": "inhibits tumor growth"}, {"measurement": "risks associated with administration", "setting": "[3]", "result": "diarrhea, nausea, vomiting, oral mucosal irritation, minimal to mild transaminase elevation, and phototoxicity"}, {"measurement": "selectivity in growth inhibition", "setting": "[4]", "result": "over 20,000 fold"}]}
{"compound": "C=CC(=O)N1CCN(c2nc(OC[C@@H]3CCCN3C)nc3c(F)c(-c4nc(N)cc(C)c4C(F)(F)F)c(Cl)cc23)[C@@H](C)C1", "note": "(atropisomer, axis not shown) [adipate salt Compound 1, 1-((S)-4-((R)-7-(6-amino-4-methyl-3-(trifluoromethyl)pyridin-2-yl)-6-chloro-8-fluoro-2-(((S)-1-methylpyrrolidin-2-yl)methoxy)quinazolin-4-yl)-3-methylpiperazin-1-yl)prop-2-en-1-one]", "values": [{"measurement": "partial responses (PRs)", "setting": "[5]; fraction of mice, Compound 1 adipate 30 mg/kg PO QD, anti-PD-L1 10/5 mg/kg BIW", "result": "⅜"}, {"measurement": "CR (complete response)", "setting": "[5]; number of mice of 8, CR = 100% decrease in tumor volume, Compound 1 adipate 30 mg/kg, anti-PD-L1 10/5 mg/kg", "result": 0}, {"measurement": "PR (partial response)", "setting": "[5]; number of mice of 8, PR = >50% decrease from initial tumor volume, Compound 1 adipate 30 mg/kg, anti-PD-L1 10/5 mg/kg", "result": 3}, {"measurement": "% TGI (estimated)", "setting": "[5]; tumor growth inhibition based on AUC, relative to vehicle, Compound 1 adipate 30 mg/kg PO QD, anti-PD-L1 10 mg/kg IV first dose then 5 mg/kg IP BIW", "result": 123, "unit": "%"}]}
{"compound": "C=CC(=O)N1CCN(c2nc(=O)n(-c3c(C)ccnc3C(C)C)c3nc(-c4c(O)cccc4F)c(F)cc23)[C@@H](C)C1", "note": "[AMG 510, sotorasib]", "values": [{"measurement": "treatment-related adverse events", "setting": "NSCLC; overall", "result": "56.6 % of patients"}, {"measurement": "Grade 3 events occurring in more than one patient", "setting": "NSCLC", "result": "ALT increase, diarrhea, anemia, AST increase, and alkaline phosphatase increase"}, {"measurement": "treatment-related Grade 3 or 4 event", "setting": "NSCLC", "result": "11.6 % of patients"}, {"measurement": "treatment-related serious adverse event", "setting": "NSCLC", "result": "1.6 % of patients"}]}
